# Where “and” joins values, the source holds several entries; their conditions need not be identical. Identical values can stand only once. Like-named read-outs stand apart in the source and are kept apart here.
# Legend:
# S. aureus (SA38) [1] = experiment: Minimum inhibitory concentration (MIC) assay against S. aureus; assay type: cell-based, Staphylococcus aureus; conditions: S. aureus SA38, read-out: MIC S. aureus
# [2] = tested on: MRC-5 normal human lung fibroblasts; experiment: MTT cytotoxicity assay; assay type: cell-based; conditions: 72 h drug incubation; for IC50: read-out: IC50 against MRC-5 normal human lung fibroblasts
# Experimental: The IC50 values of the tested peptidomimetics were determined from a dose-response curve. […] The therapeutic indices for each tested peptidomimetic against Gram-positive S. aureus and Gram-negative E. coli were calculated by dividing the IC50 value against human cells by the corresponding MIC value (Table 2).
# The toxicity of the peptidomimetics against normal human lung fibroblasts MRC-5 cells was measured, using an MTT (3-(4,5-dimethylthiazol-2-yl)-2,5-diphenyltetrazolium bromide) (Sigma Aldrich, St. Louis, MO, USA) colorimetric assay. The cells were cultured in minimal essential medium (MEM, Invitrogen) containing 10% foetal bovine serum (FBS). The cells were maintained at 37 °C in 5% CO2 as an adherent monolayer and was passaged upon reaching confluence by standard cell culture techniques. MRC-5 cells were seeded at 5000 cells/well in 96-well plates to ensure full confluence (quiescence) and left overnight to adhere to the plate wells. The adherent cells were treated with 1–500 μM of compounds by dissolving in DMSO and serially diluting with media. TY-01 was used as the positive control. The final concentration of DMSO was 0.5% (v/v). After the 72 h drug incubation, […] stock MTT solution (5 mg/mL) was added, and the cells were incubated for another 3.5–4 h. The MTT solution containing media was carefully aspirated without displacing the purple crystals from the bottom, and […] acid-isopropanol was added to all wells and mixed slowly by shaking with an orbital shaker to dissolve the dark blue crystals. […] The determination of IC50 values was performed using GraphPad Prism 7 (GraphPad, San Diego, CA, USA). Each experiment was performed in triplicate and was repeated in three independent experiments.
# S. aureus (SA38) [3] = conditions: previously reported, cited from earlier work
smiles,measurement,setting,value
"CCCCCCCCCCCCCCCCS(=O)(=O)Nc1ccccc1C(=O)C(=O)NCCCNC(=N)N.Cl [Compound 35a, N-(3-Guanidinopropyl)-2-(2-(hexadecylsulfonamido)phenyl)-2-oxoacetamide hydrochloride]",MIC,S. aureus (SA38) [1]; Staphylococcus aureus,250 µM and 147 µg/mL
"CCCCCCCCS(=O)(=O)Nc1ccc(-c2cccc(-c3ccccc3)c2)cc1C(=O)C(=O)NCCCN(C)C.Cl [Compound 22, N,N-Dimethyl-3-(2-(4-(octylsulfonamido)-[1,1′:3′,1″-terphenyl]-3-yl)-2-oxoacetamido)propan-1-aminium chloride]",IC50,"[2]; Homo sapiens, MRC5, 72 h",3.46 µM and 2.13 µg/mL
same,MIC,S. aureus (SA38) [1],16 µM
same,MIC,S. aureus (SA38) [1]; Staphylococcus aureus,9.8 µg/mL
"CCCCCCCCCCCCCCCCS(=O)(=O)Nc1ccc(-c2ccccc2)cc1C(=O)C(=O)NCCCN(C)C.Cl [Compound 15c, 3-(2-(4-(Hexadecylsulfonamido)-[1,1′-biphenyl]-3-yl)-2-oxoacetamido)-N,N-dimethylpropan-1-aminium chloride]",MIC,S. aureus (SA38) [1],> 250 µM
same,MIC,S. aureus (SA38) [1]; Staphylococcus aureus,> 163 µg/mL
"CCCCCCCCCCCCCCCCS(=O)(=O)Nc1ccccc1C(=O)C(=O)NCCCN(C)C.Cl [Compound 15a, 3-(2-(2-(Hexadecylsulfonamido)phenyl)-2-oxoacetamido)-N,N-dimethylpropan-1-aminium chloride]",MIC,S. aureus (SA38) [1],63 µM
same,MIC,S. aureus (SA38) [1]; Staphylococcus aureus,36 µg/mL
"CCCCCCCCS(=O)(=O)Nc1ccc(-c2cccc(-c3ccccc3)c2)cc1C(=O)C(=O)NCCCN(C)C [Compound 21, N-(3-(Dimethylamino)propyl)-2-(4-(octylsulfonamido)-[1,1′:3′,1″-terphenyl]-3-yl)-2-oxoacetamide]",MIC,S. aureus (SA38) [1]; Staphylococcus aureus,16 µM and 9.2 µg/mL
CCCCCCCCS(=O)(=O)Nc1ccccc1C(=O)C(=O)NCCCN(C)C [Compound 13a],MIC S. aureus,S. aureus (SA38) [3],> 250 μM and > 116 μg/mL
"CCCCCCCCCCCCS(=O)(=O)Nc1ccc(-c2ccccc2)cc1C(=O)C(=O)NCCCN(C)C.Cl [Compound 14c, 3-(2-(4-(Dodecylsulfonamido)-[1,1′-biphenyl]-3-yl)-2-oxoacetamido)-N,N-dimethylpropan-1-aminium chloride]",MIC,S. aureus (SA38) [1],16 µM
same,MIC,S. aureus (SA38) [1]; Staphylococcus aureus,9.5 µg/mL
CCCCCCCCS(=O)(=O)Nc1ccc(-c2ccccc2)cc1C(=O)C(=O)NCCCN(C)C [Compound 10c],MIC S. aureus,S. aureus (SA38) [3],24 μM and 12 μg/mL
"CCCCCCCCCCCCS(=O)(=O)Nc1ccc(Br)cc1C(=O)C(=O)NCCCN(C)C [Compound 11b, 2-(5-Bromo-2-(dodecylsulfonamido)phenyl)-N-(3-(dimethylamino)propyl)-2-oxoacetamide]",MIC,S. aureus (SA38) [1],32 µM
same,MIC,S. aureus (SA38) [1]; Staphylococcus aureus,18 µg/mL
CCCCCCCCS(=O)(=O)Nc1ccc(Br)cc1C(=O)C(=O)NCCCN(C)C [Compound 10b],MIC S. aureus,S. aureus (SA38) [3],94 μM and 47 μg/mL
"CCCCCCCCCCCCCCCCS(=O)(=O)Nc1ccccc1C(=O)C(=O)NCCCN(C)C [Compound 12a, N-(3-(Dimethylamino)propyl)-2-(2-(hexadecylsulfonamido)phenyl)-2-oxoacetamide]",MIC,S. aureus (SA38) [1]; Staphylococcus aureus,63 µM and 34 µg/mL
"CCCCCCCCS(=O)(=O)Nc1ccc(-c2cccc(-c3ccccc3)c2)cc1C(=O)C(=O)NCCC[N+](C)(C)C.[I-] [Compound 23, N,N,N-Trimethyl-3-(2-(4-(octylsulfonamido)-[1,1′:3′,1″-terphenyl]-3-yl)-2-oxoacetamido)propan-1-aminium iodide]",IC50,"[2]; Homo sapiens, MRC5, 72 h",15.4 µM and 11.1 µg/mL
same,MIC,S. aureus (SA38) [1]; Staphylococcus aureus,8 µM and 5.8 µg/mL
"CCCCCCCCS(=O)(=O)Nc1ccc(-c2ccc(-c3ccccc3)cc2)cc1C(=O)C(=O)NCCCN(C)C [Compound 10d, N-(3-(Dimethylamino)propyl)-2-(4-(octylsulfonamido)-[1,1′:4′,1″-terphenyl]-3-yl)-2-oxoacetamide]",IC50,[2],3.48 µM
same,IC50,"[2]; Homo sapiens, MRC5, 72 h",2.01 µg/mL
same,MIC,S. aureus (SA38) [1],8 µM
same,MIC,S. aureus (SA38) [1]; Staphylococcus aureus,4.6 µg/mL
"CCCCCCCCCCCCS(=O)(=O)Nc1ccccc1C(=O)C(=O)NCCCN(C)C.Cl [Compound 14a, 3-(2-(2-(Dodecylsulfonamido)phenyl)-2-oxoacetamido)-N,N-dimethylpropan-1-aminium chloride]",MIC,S. aureus (SA38) [1]; Staphylococcus aureus,16 µM and 8.3 µg/mL
"CCCCCCCCCCCCS(=O)(=O)Nc1ccc(-c2ccc(-c3ccccc3)cc2)cc1C(=O)C(=O)NCCC[N+](C)(C)C.[I-] [Compound 17d, 3-(2-(4-(Dodecylsulfonamido)-[1,1′:4′,1″-terphenyl]-3-yl)-2-oxoacetamido)-N,N,N-trimethylpropan-1-aminium iodide]",MIC,S. aureus (SA38) [1]; Staphylococcus aureus,63 µM and 48 µg/mL
"CCCCCCCCCCCCS(=O)(=O)Nc1ccc(-c2ccccc2)cc1C(=O)C(=O)NCCCN(C)C [Compound 11c, N-(3-(Dimethylamino)propyl)-2-(4-(dodecylsulfonamido)-[1,1′-biphenyl]-3-yl)-2-oxoacetamide]",MIC,S. aureus (SA38) [1]; Staphylococcus aureus,16 µM and 8.9 µg/mL
"CCCCCCCCCCCCS(=O)(=O)Nc1ccc(-c2ccc(-c3ccccc3)cc2)cc1C(=O)C(=O)NCCCN(C)C.Cl [Compound 14d, 3-(2-(4-(Dodecylsulfonamido)-[1,1′:4′,1″-terphenyl]-3-yl)-2-oxoacetamido)-N,N-dimethylpropan-1-aminium chloride]",MIC,S. aureus (SA38) [1],125 µM
same,MIC,S. aureus (SA38) [1]; Staphylococcus aureus,84 µg/mL
"CCCCCCCCCCCCS(=O)(=O)Nc1ccc(Br)cc1C(=O)C(=O)NCCCN(C)C.Cl [Compound 14b, 3-(2-(5-Bromo-2-(dodecylsulfonamido)phenyl)-2-oxoacetamido)-N,N-dimethylpropan-1-aminium chloride]",MIC,S. aureus (SA38) [1]; Staphylococcus aureus,16 µM and 9.6 µg/mL
CCCCCCCCS(=O)(=O)Nc1ccccc1C(=O)C(=O)NCCCN(C)C [Compound 10a],MIC S. aureus,S. aureus (SA38) [3],250 μM and 106 μg/mL
CCCCCCCCS(=O)(=O)Nc1ccc(Br)cc1C(=O)C(=O)NCCCNC(=N)N [Compound 33b],MIC S. aureus,"S. aureus (SA38) [3]; listed as 1, 33b",12 μM and 6.7 μg/mL
same,MIC S. aureus,S. aureus (SA38) [3]; listed as 1,12 µM
"CCCCCCCCCCCCCCCCS(=O)(=O)Nc1ccc(Br)cc1C(=O)C(=O)NCCCN(C)C.Cl [Compound 15b, 3-(2-(5-Bromo-2-(hexadecylsulfonamido)phenyl)-2-oxoacetamido)-N,N-dimethylpropan-1-aminium chloride]",MIC,S. aureus (SA38) [1],250 µM
same,MIC,S. aureus (SA38) [1]; Staphylococcus aureus,163 µg/mL
"CCCCCCCCS(=O)(=O)Nc1ccc(-c2ccc(-c3ccccc3)cc2)cc1C(=O)C(=O)NCCCN(C)C.Cl [Compound 13d, N,N-Dimethyl-3-(2-(4-(octylsulfonamido)-[1,1′:4′,1″-terphenyl]-3-yl)-2-oxoacetamido)propan-1-aminium chloride]",IC50 against MRC-5 normal human lung fibroblasts,[2],2.31 µg/mL
same,IC50,[2],3.76 µM
same,IC50,"[2]; Homo sapiens, MRC5, 72 h",~4 µM and ~2 µg/mL
same,MIC,S. aureus (SA38) [1]; Staphylococcus aureus,16 µM and 9.8 µg/mL
"CCCCCCCCCCCCS(=O)(=O)Nc1ccccc1C(=O)C(=O)NCCC[N+](C)(C)C.[I-] [Compound 17a, 3-(2-(2-(Dodecylsulfonamido)phenyl)-2-oxoacetamido)-N,N,N-trimethylpropan-1-aminium iodide]",MIC,S. aureus (SA38) [1]; Staphylococcus aureus,16 µM and 10 µg/mL
CCCCCCCCS(=O)(=O)Nc1ccccc1C(=O)C(=O)NCCCNC(=N)N [Compound 33a],MIC S. aureus,S. aureus (SA38) [3],47 μM and 22 μg/mL
CCCCCCCCS(=O)(=O)Nc1ccc(-c2ccccc2)cc1C(=O)C(=O)NCCCN(C)C [Compound 13c],MIC S. aureus,S. aureus (SA38) [3],16 μM and 8.6 μg/mL
"CCCCCCCCCCCCS(=O)(=O)Nc1ccccc1C(=O)C(=O)NCCCN(C)C [Compound 11a, N-(3-(Dimethylamino)propyl)-2-(2-(dodecylsulfonamido)phenyl)-2-oxoacetamide]",MIC,S. aureus (SA38) [1],32 µM
same,MIC,S. aureus (SA38) [1]; Staphylococcus aureus,15 µg/mL
"CCCCCCCCCCCCCCCCS(=O)(=O)Nc1ccc(-c2ccccc2)cc1C(=O)C(=O)NCCC[N+](C)(C)C.[I-] [Compound 18c, 3-(2-(4-(Hexadecylsulfonamido)-[1,1′-biphenyl]-3-yl)-2-oxoacetamido)-N,N,N-trimethylpropan-1-aminium iodide]",MIC,S. aureus (SA38) [1]; Staphylococcus aureus,250 µM and 189 µg/mL
"CCCCCCCCCCCCS(=O)(=O)Nc1ccc(-c2ccc(-c3ccccc3)cc2)cc1C(=O)C(=O)NCCCN(C)C [Compound 11d, N-(3-(Dimethylamino)propyl)-2-(4-(dodecylsulfonamido)-[1,1′:4′,1″-terphenyl]-3-yl)-2-oxoacetamide]",MIC,S. aureus (SA38) [1]; Staphylococcus aureus,250 µM and 158 µg/mL
"CCCCCCCCCCCCCCCCS(=O)(=O)Nc1ccc(Br)cc1C(=O)C(=O)NCCCN(C)C [Compound 12b, 2-(5-Bromo-2-(hexadecylsulfonamido)phenyl)-N-(3-(dimethylamino)propyl)-2-oxoacetamide]",MIC,S. aureus (SA38) [1]; Staphylococcus aureus,250 µM and 154 µg/mL
CCCCCCCCS(=O)(=O)Nc1ccc(Br)cc1C(=O)C(=O)NCCCN(C)C [Compound 13b],MIC S. aureus,S. aureus (SA38) [3],63 μM and 34 μg/mL
"CCCCCCCCCCCCCCCCS(=O)(=O)Nc1ccc(Br)cc1C(=O)C(=O)NCCC[N+](C)(C)C.[I-] [Compound 18b, 3-(2-(5-Bromo-2-(hexadecylsulfonamido)phenyl)-2-oxoacetamido)-N,N,N-trimethylpropan-1-aminium iodide]",MIC,S. aureus (SA38) [1]; Staphylococcus aureus,125 µM and 95 µg/mL

# From PMC8303886, “Polyphenylglyoxamide-Based Amphiphilic Small Molecular Peptidomimetics as Antibacterial Agents with Anti-Biofilm Activity” (International Journal of Molecular Sciences, 2021)
